Source: patent US20240425501A1, “NOVEL BICYCLIC HETEROARYL DERIVATIVES AS SOS1:KRAS PROTEINPROTEIN INTERACTION INHIBITORS” (SATYARX PHARMA INNOVATIONS PVT LTD, priority 2021, published 2024)

Each molecule was assayed against T1, hSOS1 enzyme / KRAS (G12C), GST-Tag, GDP-bound protein (Homo sapiens, UniProt Q07889) (assay: SOS1-mediated KRAS guanine nucleotide exchange (GEF) assay, HTRF ("On Assay")). Settings: 1 μM compound.
T1 sequence (Q07889 564-1049 limits assumed): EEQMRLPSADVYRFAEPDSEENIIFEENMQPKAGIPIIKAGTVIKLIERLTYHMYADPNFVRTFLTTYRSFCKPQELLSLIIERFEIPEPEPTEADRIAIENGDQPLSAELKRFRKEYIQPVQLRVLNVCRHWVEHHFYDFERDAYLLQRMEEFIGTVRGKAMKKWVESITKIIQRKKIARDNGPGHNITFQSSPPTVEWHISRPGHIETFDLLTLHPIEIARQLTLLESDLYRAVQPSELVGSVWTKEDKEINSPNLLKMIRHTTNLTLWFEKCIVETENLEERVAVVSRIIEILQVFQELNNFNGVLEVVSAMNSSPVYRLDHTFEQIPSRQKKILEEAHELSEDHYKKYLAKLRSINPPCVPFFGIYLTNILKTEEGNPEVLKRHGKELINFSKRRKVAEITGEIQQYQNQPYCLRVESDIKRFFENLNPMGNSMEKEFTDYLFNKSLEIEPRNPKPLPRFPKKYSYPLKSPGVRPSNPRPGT
Assay type: biochemical
Summary of the method: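 Compounds were preincubated 10 min at 25 °C with GDP-loaded GST-KRAS G12C and Tb-anti-GST (working solution 100 nM/2 nM) in HEPES pH 7, 5 mM MgCl2. hSOS1 plus DY-647P-labelled GTP (working solution 20 nM/200 nM) was then added for 10 min. HTRF was read at 665/615 nm with 320 nm excitation, and wells lacking SOS1 served as negative control.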

Row | SMILES | inhibition at 1 µM
1 | Cc1nnc(N[C@H](C)c2cc(N)cc(C(F)(F)F)c2)c2cc(N3CCOCC3)cnc12 [Example 87, (R)—N-(1-(3-amino-5-(trifluoromethyl)phenyl)ethyl)-8-methyl-3-morpholinopyrido[2,3-d]pyridazin-5-amine] | ≥ 50%
2 | CCN1CCN(c2cnc3cc(Cl)nc(N[C@H](C)c4cc(N)cc(C(F)(F)F)c4)c3c2)CC1 [Example 88, (R)—N-(1-(3-amino-5-(trifluoromethyl)phenyl)ethyl)-7-chloro-3-(4-ethylpiperazin-1-yl)-1,6-naphthyridin-5-amine] | ≥ 50%
3 | C[C@@H](Nc1nc(Cl)cc2ncc(N3CCOCC3)cc12)c1cc(N)cc(C(F)(F)F)c1 [Example 89, (R)—N-(1-(3-amino-5-(trifluoromethyl)phenyl)ethyl)-7-chloro-3-morpholino-1,6-naphthyridin-5-amine] | ≥ 50%
